Source: patent US12129255B2, “Pyrido [2,3-d]pyrimidine derivatives as inhibitors of human immunodeficiency virus replication” (VIIV HEALTHCARE UK (No. 5) LIMITED, priority 2019, dated 2024)
Read-outs that look alike come from different tables or passages of the source.

Experiments:
[1] = Allometric scaling of pre-clinical PK parameters to predict dose in human
Experimental: Human dose predictions were performed using Phoenix WinNonlin (v 8.0) software and Microsoft Excel using the ModelRisk add-in for population modeling. Human estimates for each compound's CLTp were obtained based on average allometric scaling of mouse, rat, monkey and dog IV data (body weight scaling factor of 0.75) and an average (body weight scaling factor of 1.0) from all species for VSS. Human IV parameters (Vc, Ka, K12, K21, Kel) were determined using Mean Residence Time (MRT) scaling from preclinical species (mouse, rat, dog and cyno) using the human VSS and CLTp estimates. Absorption (Ka) was determined by deconvolution (PO) or from the half-life (SC) in preclinical species (Ka=LN(2)/t1/2). The predicted human dose for PO and SC is calculated with consideration of human variability and is calculated to cover 95% of the human population.

[2] = Metabolism in liver microsomes (rat); type: in vitro ADME; conditions: pH 7.4, 1 μM compound, 1 mg/mL microsomes, NADPH, read-out: Rat liver microsome T1/2
Experimental: (§1) Liver microsomes from human, rat dog and monkey were thawed and diluted to a final concentration of 1 mg/mL in 100 mM potassium phosphate buffer (pH 7.4). Test compounds and controls were prepared at 100× final concentration of 1 μM in 1:1 acetonitrile:water (v/v) and aliquoted into microsomal mixture. The mixture was preincubated at 37° C. in a shaking water bath for 10 minutes. The incubations were performed in duplicate. Three controls were included in the incubations; warfarin, phenacetin, and verapamil. After the preincubation, the reaction was initiated with NADPH at a final concentration of 1 mM. At 0, 5, 15, 30, 45 and 60 minutes, 25 μL of sample was removed and quenched with 300 μL of acetonitrile containing internal standard (Telmisartan). The samples were vortexed for 5 minutes at 1200 rpm and then centrifuged at 4000 rpm for 10 min. A 100 μL aliquot of supernatant was diluted three-fold with water and injected on an Exion LC 4500 Triple Quad LC-MS/MS system. Results were reported as a percentage of parent remaining and was calculated from peak area ratios of test compound remaining after at each time point and compared to time zero incubation.

[3] = IV pharmacokinetics in mouse; type: in vivo, male CD1 mice; conditions: male, CD1, plasma, IV 1 mg/kg
Experimental: (§2) PK was investigated in male CD1 mice, Wistar Han Rats, Cynomolgus monkeys, and Beagle Dogs. Two groups of animals (N=3 per group) received test compound either as an intravenous (IV) dose (1 mg/kg) or by oral gavage (5 mg/kg solution and suspension). Drug was formulated in 90% PEG 400, 10% ethanol for IV administration and in 90% PEG400, 5% ethanol for PO administration. Blood samples were collected at 0.167, 0.25, 0.5, 0.75, 1, 2, 3, 5, 7, 24, 48, 72 and 96 h post dose for IV; 0.25, 0.5, 0.75, 1, 2, 3, 5, 7, 24, 48, 72 and 96 h post dose for oral. Blood samples were collected into K3EDTA tubes and centrifuged at 1500 to 2000×g to obtain plasma. Plasma samples were stored at −20° C. until analysis by LC-MS/MS. All in vivo samples were injected on an Exion LC 4500 Triple Quad™ LC-MS/MS system where the column was maintained at 60° C. and the flow rate was 0.6 mL/min. All LC-MS/MS analysis parameters are captured electronically in the raw data files. Rat IV, Dog IV, Monkey IV, and Monkey PO PK samples were analyzed by General Analysis Method A. Mouse IV, Mouse PO, and Dog PO PK samples were analyzed by General Analysis Method B. Rat PO samples were analyzed by General Analysis Method C.
(§3) The PK parameters were obtained by non-compartmental analysis of plasma concentration vs time data (Phoenix WinNonlin v8.1). The peak concentration (Cmax) and time for Cmax (Tmax) were recorded directly from experimental observations. The area under the curve from time zero to the last sampling time [AUC0-T] and the area under the curve from time zero to infinity [AUCINF] were calculated using the linear-log trapezoidal rule. The total plasma clearance (CLTp), steady-state volume of distribution (VSS), apparent elimination half-life (T-HALF), and mean residence time (MRT) were estimated after IV administration. Estimations of AUC and T-HALF were made using a minimum of three timepoints with quantifiable concentrations. The absolute oral bioavailability (F) was estimated as the ratio of dose-normalized AUC values following oral and IV doses.

[4] = IV pharmacokinetics in monkey; type: in vivo, Cynomolgus monkeys
Experimental: as §2, §3

[5] = Metabolism in liver microsomes (dog); type: in vitro ADME
Experimental: as §1

[6] = test system: recombinant NL4-3 virus; assay: Antiviral activity toward recombinant NL4-3 Renilla luciferase virus in MT-2 cells; type: cell-based, HIV
Experimental: MT-2 cells, 293T cells and the proviral DNA clone of NL4-3 virus were obtained from the NIH AIDS Research and Reference Reagent Program. MT-2 cells were propagated in RPMI 1640 media supplemented with 10% heat inactivated fetal bovine serum (FBS), […]. The 293T cells were propagated in DMEM media supplemented with 10% heat inactivated FBS, […]. A recombinant NL4-3 proviral clone, in which a section of the nef gene was replaced with the Renilla luciferase gene, was used to make the reference virus used in these studies. The recombinant virus was prepared through transfection of the recombinant NL4-3 proviral clone into 293T cells using Transit-293 Transfection Reagent from Mirus Bio LLC (Madison, WI). Supernatant was harvested after 2-3 days and the amount of virus present was titered in MT-2 cells using luciferase enzyme activity as a marker by measuring luciferase enzyme activity. Luciferase was quantitated using the EnduRen Live Cell Substrate from Promega (Madison, WI). Antiviral activities of compounds toward the recombinant virus were quantified by measuring luciferase activity in MT-2 cells infected for 4-5 days with the recombinant virus in the presence of serial dilutions of the compound. […]

[7] = cynomolgus monkey, plasma, Monkey, IV 1 mg/kg

Question: For `Cn1nc(NS(C)(=O)=O)c2c(Cl)ccc(-n3c([C@H](Cc4cc(F)cc(F)c4)NC(=O)Cn4nc(C(F)F)c5c4C(F)(F)[C@@H]4C[C@H]54)nc4nc(OCCC(F)(F)F)ccc4c3=O)c21` (atropisomer, axis not shown; (P)) [Example 1, N—((S)-1-((3P)-3-(4-chloro-1-methyl-3-(methylsulfonamido)-1H-indazol-7-yl)-4-oxo-7-(3,3,3-trifluoropropoxy)-3,4-dihydropyrido[2,3-d]pyrimidin-2-yl)-2-(3,5-difluorophenyl)ethyl)-2-((3bS,4aR)-3-(difluoromethyl)-5,5-difluoro-3b,4,4a,5-tetrahydro-1H-cyclopropa[3,4]cyclopenta[1,2-c]pyrazol-1-yl)acetamide], which “predicted human QD PO dose” value ([1]; once-daily oral, allometric scaling, to cover 95% of the human population) is on record?
Answer: less than 10 mg

Question: What about the “predicted Q1M SC dose in human lower than for Example 60.2” value ([1]; once-monthly subcutaneous, from SC rat PK and predicted human clearance) of the same molecule?
Answer: 15 fold

Question: And the “predicted once-daily oral dose in human lower than for Example 60.2” value ([1]; to maintain efficacious plasma concentration)?
Answer: 7 fold

Question: What about the half-life at 1 μM [2] of the same molecule?
Answer: > 2 h

Question: What about the clearance [3] of the same molecule?
Answer: 0.5 mL/min/kg

Question: What about the half-life [3] of the same molecule?
Answer: 7.6 h

Question: And the Vd ([3]; read-out: Vss)?
Answer: 0.24 L/kg

Question: And the clearance [4, 7]?
Answer: 8.5 mL/min/kg

Question: And the half-life [4, 7]?
Answer: 3 h

Question: What about the Vd ([4]; cynomolgus monkey, plasma, Monkey, IV 1 mg/kg, read-out: Vss) of the same molecule?
Answer: 1.18 L/kg

Question: What about the “clearance improved relative to Example 60.2” value ([4]; monkey, IV) of the same molecule?
Answer: 2.6 fold

Question: What about the “half-life in circulation higher than Example 60.2” value ([4]; monkey, IV) of the same molecule?
Answer: two-fold

Question: And the “stability in dog liver microsomes relative to Example 60.2” value ([5]; Example 1 versus Example 60.2)?
Answer: six times more stable

Question: What about the half-life at 1 μM ([5]; dog, liver microsomes, pH 7.4, 1 μM compound, 1 mg/mL microsomes, NADPH, read-out: Dog liver microsome T1/2) of the same molecule?
Answer: 1.75 h

Question: And the EC50 ([6]; Human immunodeficiency virus 1, NL43, MT2, read-out: EC50 (anti-HIV virology assay, revised average))?
Answer: 25 ± 8 pM

Question: And the EC50 ([6]; Human immunodeficiency virus 1, NL43, MT2, read-out: EC50 when initially tested)?
Answer: 34 pM
